Data reported in US20080306057A1, “P13K Inhibitors for the Treatment of Endometriosis” (LABORATORIES SERONO SA, priority 2005, published 2008).
Where two headings read alike, the source gives them in different places. Each block holds one molecule with its values, some of them ahead of it.

Assays:
endometriosis = details: cited from earlier work
[1] = tested on: endometriotic cells (12Z cells); assay: Induction of cell death in endometriotic cells, crystal violet staining; assay type: cell-based, human; details: for EC50: Homo sapiens, 12Z, crystal violet staining
Excerpt: It is well established that the glandular and stromal tissues from the eutopic endometrium implant in ectopic sites leading to endometriosis. Survival of the ectopic implants is due to a reduced cell death (apoptosis) of these implants, and is presumed to be due to increased expression of survival cell signaling pathways. Proteins or specific small molecule compounds that induce target-specific cell-death of ectopic endometriotic cells without affecting eutopic endometrium or other normal cells could be used as a treatment for eliminating endometriosis. In this regard, we examined the effect of PI3K inhibitor-1 (5-Quinoxalin-6-ylmethylene-thiazolidine-2,4-dione) on its ability to induce cell death of endometriotic cells (12Z cells), an immortalized human epithelial endometriotic cell (Zeitvogel et al. 2001). These cells grow in culture and secrete cytokines in response to TNFα that have been reported to be elevated in the peritoneal fluid of endometriotic patients. The 12Z cells were treated with PI3K inhibitor-1 for 24 h and cell death was measured by crystal violet staining. Since the peritoneal fluids contain elevated concentrations of TNFα, the inhibitor was also tested in the presence of this cytokine. Dead cells get detached from the tissue culture plate and washed away during staining with crystal violet. The intensity of the color will determine the extent of live cells present in the plate. […] TNFα alone had no effect of cell viability (data not shown).

[2] = tested on: endometriotic lesions from human endometrial tissue; assay: Xenograft nude mouse model of endometriosis; assay type: in vivo, nude mice
Procedure: Human endometrial tissue was injected in ovarectomized nude mice to establish the disease (Bruner-Tran et al. 2002). In brief, endometrial biopsies obtained from normal volunteers or from endometriotic patients were cut into small pieces and cultured in the presence of estradiol for 24 h. Treated tissues, were injected either subcutaneously or intraperitoneally into ovarectomized nude mice with estradiol implant. Within 2-4 days of injection, ectopic endometriotic lesions develop in animals. Treatment with either progesterone or PI3K inhibitor-1 was started 10 days following the injection of tissue. The compound was administered at a dose of 10 mg/kg and 30 mg/kg/animal for 28 days. […] Following the completion of treatment, animals were sacrificed, lesions developed from the transplanted tissue found in both subcutaneous and intraperitoneal sites, were measured (both size and number).

endometriosis-like foci = assay: Rat model of endometriosis (autologous uterine horn fragment transplant); assay type: in vivo
Procedure: Endometriosis was induced in rats as described earlier (D'Antonio et al 2000). In brief, autologous uterine horn fragment was transplanted onto the inner surface of the abdominal wall in rat. Three weeks following transplantation, the size and the viability of the engrafted tissue was measured. One week after the confirmation of the tissue attachment, treatments were started. The control group received the vehicle, the PI3K inhibitor-1 was administered orally (po) at a single dose of 30 mg/kg per day. Treatment with the inhibitor was conducted for nine days, animals were anaesthetized 2 hr following the last treatment and blood samples were collected. Surface area of the endometriosis-like foci was measured. The endometriotic-like foci was removed for histology.

[3] = 10 mg/kg × 28 days, listed as PI3K inhibitor
[4] = 30 mg/kg × 28 days, listed as PI3K inhibitor

Molecule: C#C[C@]1(O)CC[C@H]2[C@@H]3CCC4=Cc5oncc5C[C@]4(C)[C@H]3CC[C@@]21C [Danazol]
- Recurrence rate (endometriosis; after up to 4 years): 40%-50
- Patients suffering from pain with improved symptoms (endometriosis; endometriosis patients): 66-100%

- Effect on the uterine weight and size of the animals ([2]; 10 mg/kg and 30 mg/kg for 28 days): no effect
Molecule: O=C1NC(=O)C(=Cc2ccc3nccnc3c2)S1 [PI3K inhibitor-1, 5-Quinoxalin-6-ylmethylene-thiazolidine-2,4-dione]
- Extent of cell death induced, with versus without TNFα ([1]; 24 h): greater in the presence of TNFα
- Amount of live cells in culture ([1]; 24 h, either alone or in the presence of TNFα): reduce the amount of live cells in culture
- EC50 ([1]; in the presence of 15 ng/ml of TNFα, 24 h, read-out: Concentration required to induce 50% cell death (EC50), +TNFα): 6.4 µM
- EC50 ([1]; inhibitor alone, 24 h, read-out: Concentration required to induce 50% cell death (EC50), Alone): > 10 µM
- Lesion (% Progesterone) Compared to progesterone treated group, decrease ([2]; 10 mg/kg × 28 days): 53% Decrease
- Lesion size, decrease ([2]; 10 mg/kg × 28 days): 10% Decrease
- Lesion (% Progesterone) Compared to progesterone treated group, decrease [2, 3]: 53%
- Lesion size, decrease [2, 3]: 10%
- Lesion (% Progesterone) Compared to progesterone treated group, decrease ([2]; 30 mg/kg × 28 days): 80% Decrease
- Lesion size, decrease ([2]; 30 mg/kg × 28 days): 30% Decrease
- Lesion (% Progesterone) Compared to progesterone treated group, decrease [2, 4]: 80%
- Lesion size, decrease [2, 4]: 30%
- Regression of established endometriotic lesions (endometriosis-like foci; 30 mg/kg per day po, nine days): 64%

Molecule: TNFα
- Cell viability ([1]; TNFα alone, data not shown): no effect

Molecule: antide [reference compound]
- Regression of established endometriotic lesions (endometriosis-like foci; for comparison, data not shown): 94%
